Data as given in PubChem BioAssay AID248 (DTP/NCI, 2004).
Toxic doses and inconclusive results are not listed. No stated cut-off is given here; in the data, active means T/C of 150% or more; inactive means T/C below 125%.

System: L1210 leukemia ip in BDF1 mice, survival T/C
Assay: NCI In Vivo Anticancer Drug Screen. Data for tumor model L1210 Leukemia (intraperitoneal) in B6D2F1 (BDF1) mice
Details: endpoint: mean survival time, higher = longer survival
How it was run: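 Read-out is survival time, reported as the treated-group measurement over the vehicle-control measurement.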

[1] = dose: 100.0 mg/kg/injection, schedule: Q01DX009 (ip), vehicle: Klucel (hydroxypropylcellulose) (HPC)
[2] = dose: 100.0 mg/kg/injection, schedule: Q04DX003 (ip), vehicle: saline with Tween-80
[3] = dose: 200.0 mg/kg/injection, schedule: Q04DX003 (ip), vehicle: saline with Tween-80
[4] = dose: 400.0 mg/kg/injection, schedule: Q04DX003 (ip), vehicle: saline with Tween-80
[5] = dose: 200.0 mg/kg/injection, schedule: Q04DX002 (ip), vehicle: Klucel (hydroxypropylcellulose) (HPC)
[6] = dose: 400.0 mg/kg/injection, schedule: Q04DX002 (ip), vehicle: Klucel (hydroxypropylcellulose) (HPC)
[7] = dose: 100.0 mg/kg/injection, schedule: Q01DX001 (ip), vehicle: saline
[8] = dose: 200.0 mg/kg/injection, schedule: Q01DX001 (ip), vehicle: saline
[9] = dose: 400.0 mg/kg/injection, schedule: Q01DX001 (ip), vehicle: saline
[10] = dose: 100.0 mg/kg/injection, schedule: Q04DX003 (ip), vehicle: saline
[11] = dose: 50.0 mg/kg/injection, schedule: Q01DX001 (ip), vehicle: saline

Measured: T/C

ClCCOCOCCCl
inactive: dose: 20.0 mg/kg/injection, schedule: Q04DX003 (ip), vehicle: Klucel (hydroxypropylcellulose) (HPC) 104 % of control | dose: 40.0 mg/kg/injection, schedule: Q04DX003 (ip), vehicle: Klucel (hydroxypropylcellulose) (HPC) 104 % of control | dose: 80.0 mg/kg/injection, schedule: Q04DX003 (ip), vehicle: Klucel (hydroxypropylcellulose) (HPC) 101 % of control

O=C(O)CSc1c([N+](=O)[O-])cc(C(F)(F)F)cc1[N+](=O)[O-]
inactive: dose: 50.0 mg/kg/injection, schedule: Q01DX009 (ip), vehicle: Klucel (hydroxypropylcellulose) (HPC) 101 % of control | [1] 101 % of control | dose: 200.0 mg/kg/injection, schedule: Q01DX009 (ip), vehicle: Klucel (hydroxypropylcellulose) (HPC) 95 % of control

Cc1ccc(S(=O)(=O)NC(=O)NCCCS(C)=O)cc1 (stereo not drawn)
inactive: [2] 100 % of control | [3] 102 % of control | [4] 100 % of control

c1ccc2c[n+](CCCCCCCCCC[n+]3ccc4ccccc4c3)ccc2c1
inactive: dose: 1.0 mg/kg/injection, schedule: Q01DX009 (ip), vehicle: saline 106 % of control | dose: 2.0 mg/kg/injection, schedule: Q01DX009 (ip), vehicle: saline 97 % of control | dose: 4.0 mg/kg/injection, schedule: Q01DX009 (ip), vehicle: saline 92 % of control | dose: 8.0 mg/kg/injection, schedule: Q04DX003 (ip), vehicle: saline 97 % of control | dose: 16.0 mg/kg/injection, schedule: Q04DX003 (ip), vehicle: saline 92 % of control | dose: 32.0 mg/kg/injection, schedule: Q04DX003 (ip), vehicle: saline 89 % of control

O=C1c2ccccc2C(=O)c2c1cccc2N1CCOCC1
inactive: [5] 98 % of control | [6] 112 % of control

CC(=O)/C(=N\N=C(N)N)c1ccccc1
inactive: dose: 1.88 mg/kg/injection, schedule: Q01DX Z (ip), vehicle: saline 102 % of control | dose: 3.75 mg/kg/injection, schedule: Q01DX Z (ip), vehicle: saline 93 % of control | dose: 3.75 mg/kg/injection, schedule: Q01DX Z (oral), vehicle: other 90 % of control | dose: 7.5 mg/kg/injection, schedule: Q01DX Z (ip), vehicle: saline 98 % of control | dose: 7.5 mg/kg/injection, schedule: Q01DX Z (oral), vehicle: other 98 % of control | dose: 15.0 mg/kg/injection, schedule: Q01DX Z (oral), vehicle: other 96 % of control

Cc1cccc(C)c1-c1c2ccccc2cc2ccccc12
inactive: dose: 100.0 mg/kg/injection, schedule: Q01DX009 (ip), vehicle: saline 95 % of control | [2] 96 % of control | dose: 200.0 mg/kg/injection, schedule: Q01DX009 (ip), vehicle: saline 93 % of control | [3] 96 % of control | dose: 400.0 mg/kg/injection, schedule: Q01DX009 (ip), vehicle: saline 87 % of control | [4] 93 % of control

CC(=O)c1c(C)[nH]c2ccc(NS(=O)(=O)N(C)C)cc12
inactive: dose: 75.0 mg/kg/injection, schedule: Q04DX003 (ip), vehicle: Klucel (hydroxypropylcellulose) (HPC) 96 % of control | dose: 150.0 mg/kg/injection, schedule: Q04DX003 (ip), vehicle: Klucel (hydroxypropylcellulose) (HPC) 102 % of control | dose: 300.0 mg/kg/injection, schedule: Q04DX003 (ip), vehicle: Klucel (hydroxypropylcellulose) (HPC) 100 % of control

Cc1ccc(N=Nc2c(C)nn(C(N)=S)c2C)cc1
inactive: dose: 75.0 mg/kg/injection, schedule: Q01DX001 (ip), vehicle: other 100 % of control | dose: 150.0 mg/kg/injection, schedule: Q01DX001 (ip), vehicle: other 103 % of control

C=CCOC(=O)Nc1ccc(S(=O)(=O)NC2CCCCC2)cc1
inactive: [7] 92 % of control | [8] 94 % of control | [9] 97 % of control

O=C(Cc1ccccc1)NC1=C(Cl)C(=O)c2ccccc2C1=O
inactive: [2] 89 % of control | [3] 101 % of control | [4] 88 % of control

COC(=O)C1C(O)C(C)C(O)OC1C(C)C(O)C(C)/C=C\C=C(/C)C(=O)Nc1c(C)c(OC(C)=O)c2c(c1O)C(=O)C(C)=C1OCOC(/C(C)=C/C(C)=O)=C12 (stereo not drawn)
inactive: [10] 95 % of control | dose: 200.0 mg/kg/injection, schedule: Q04DX003 (ip), vehicle: saline 102 % of control | dose: 400.0 mg/kg/injection, schedule: Q04DX003 (ip), vehicle: saline 93 % of control

COc1cccc(CCOC(C)=O)c1
inactive: dose: 100.0 mg/kg/injection, schedule: Q04DX002 (ip), vehicle: saline with Tween-80 94 % of control | dose: 200.0 mg/kg/injection, schedule: Q04DX002 (ip), vehicle: saline with Tween-80 108 % of control | dose: 400.0 mg/kg/injection, schedule: Q04DX002 (ip), vehicle: saline with Tween-80 97 % of control

c1ccc(C2=NC(c3ccccc3)C(c3ccccc3)N2)cc1 (stereo not drawn)
inactive: dose: 100.0 mg/kg/injection, schedule: Q01DX001 (ip), vehicle: Klucel (hydroxypropylcellulose) (HPC) 97 % of control | dose: 200.0 mg/kg/injection, schedule: Q01DX001 (ip), vehicle: Klucel (hydroxypropylcellulose) (HPC) 94 % of control | dose: 400.0 mg/kg/injection, schedule: Q01DX001 (ip), vehicle: Klucel (hydroxypropylcellulose) (HPC) 89 % of control

Cc1cccc(C)c1NC(=O)C(Cl)Cl
inactive: dose: 50.0 mg/kg/injection, schedule: Q01DX Z (ip), vehicle: methylcellulose (MC) 109 % of control | dose: 73.0 mg/kg/injection, schedule: Q01DX Z (ip), vehicle: methylcellulose (MC) 107 % of control | dose: 112.0 mg/kg/injection, schedule: Q01DX Z (ip), vehicle: methylcellulose (MC) 101 % of control | dose: 168.0 mg/kg/injection, schedule: Q01DX Z (ip), vehicle: methylcellulose (MC) 101 % of control

ClCc1nc(-c2ccco2)no1
inactive: [1] 95 % of control

Nc1nc(Cl)c(N=Nc2ccc(Cl)cc2)c(NC2CC(O)C(CO)C2)n1 (stereo not drawn)
inactive: dose: 100.0 mg/kg/injection, schedule: Q04DX002 (ip), vehicle: Klucel (hydroxypropylcellulose) (HPC) 104 % of control | [5] 100 % of control | [6] 96 % of control

C/C(=C\C(C)(C)c1ccccc1)c1ccccc1 (tested in a mixture with another compound)
inactive: [11] 90 % of control | [7] 96 % of control | [8] 113 % of control | [9] 116 % of control

NCC(OCC(=O)O)C(Cl)(Cl)Cl (stereo not drawn)
inactive: dose: 100.0 mg/kg/injection, schedule: Q01DX009 (ip), vehicle: saline with Tween-80 93 % of control | dose: 200.0 mg/kg/injection, schedule: Q01DX009 (ip), vehicle: saline with Tween-80 95 % of control | dose: 400.0 mg/kg/injection, schedule: Q01DX009 (ip), vehicle: saline with Tween-80 90 % of control

NS(=O)(=O)c1ccc(Br)cc1
inactive: dose: 25.0 mg/kg/injection, schedule: Q04DX003 (ip), vehicle: saline 106 % of control | dose: 50.0 mg/kg/injection, schedule: Q04DX003 (ip), vehicle: saline 97 % of control | [10] 100 % of control | dose: 150.0 mg/kg/injection, schedule: Q04DX003 (ip), vehicle: saline 105 % of control | dose: 225.0 mg/kg/injection, schedule: Q04DX003 (ip), vehicle: saline 102 % of control | dose: 335.0 mg/kg/injection, schedule: Q04DX003 (ip), vehicle: saline 105 % of control

CC(=O)OCC1OC(SC2CCCCC2Br)C(OC(C)=O)C(OC(C)=O)C1OC(C)=O (stereo not drawn)
inactive: [7] 101 % of control | [8] 104 % of control | [9] 106 % of control

CCOC(=O)C(NC(=O)c1ccccc1)C(=O)OCC
inactive: [11] 96 % of control | [7] 96 % of control | [8] 96 % of control | [9] 96 % of control

COc1ccc(CC2NCCc3cc(OC)c(OC)cc32)cc1OC (stereo not drawn)
inactive: dose: 75.0 mg/kg/injection, schedule: Q01DX001 (ip), vehicle: saline 101 % of control
